According to US11000033B2, “Ketone or oxime compound, and herbicide” (NISSAN CHEMICAL CORPORATION, priority 2014, dated 2021):

Tests used:
Format in all cases: in vivo
Digitaria ciliaris = test: Test Example 4: herbicidal effect by soil treatment (symbol F); details: application herbicide amount 320 g/ha
Outline: (§1)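 Seeds were sown in sterilized diluvial soil, covered with about 1.5 cm of soil, and the soil surface was sprayed with a water-diluted emulsion of the compound at a predetermined rate. Plants grew in a greenhouse at 25° C. to 30° C.; effects were scored visually 3 weeks after application.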

rapeseed = test: Test Example 5: effect on crop by foliage application, plastic box (symbol g); details: 320 g/ha, 3 weeks after application
Outline: (§2)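 Box culture: sterile diluvial soil, seeds spot-sown, ~1.5 cm cover, raised under glass at 25–30° C.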

[1] = tested on: Echinochloa crus-galli var. crus-galli; test: Test Example 5: herbicidal effect by foliage application, plastic box (symbol H); details: 320 g/ha, 3 weeks after application
Outline: (§3)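 Herbicide, formulated as an emulsion and diluted in water, is sprayed onto the aerial parts of 14-day seedlings. These were grown at 25° C. to 30° C. in sterilized diluvial soil; effects are graded after 3 weeks.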

Leptochloa chinensis = test: Test Example 3: herbicidal effect by foliage application, Wagner pot (symbol D); details: application herbicide amount 320 g/ha
Outline: (§4)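 Post-emergence, paddy-type test: seedlings 14 d old in shallow-flooded (0.1–0.5 cm) alluvial soil, 25–30 °C greenhouse. Emulsion diluted to target rate, sprayed on leaves. Read-out: visual effect on each species at 3 weeks, per set criteria.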

Setaria viridis [2] = test: Test Example 4: herbicidal effect by soil treatment (symbol G); details: application herbicide amount 320 g/ha
Outline: as §1

beet = test: Test Example 5: effect on crop by foliage application, plastic box (symbol f); details: 320 g/ha, 3 weeks after application
Outline: as §2

transplanted rice plant = test: Test Example 1: effect on crop, application before weed generation in submerged conditions (symbol a); details: application herbicide amount 320 g/ha
Outline: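 Rice at 2.5 leaf stage transplanted into submerged soil (4 cm depth) sown with three weed species; herbicide applied before weed emergence.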

Amaranthus retroflexus = test: Test Example 4: herbicidal effect by soil treatment (symbol N); details: application herbicide amount 320 g/ha
Outline: as §1

Apera spica-venti [3] = test: Test Example 4: herbicidal effect by soil treatment (symbol L); details: application herbicide amount 320 g/ha
Outline: as §1

Lolium multiflorum Lam. = test: Test Example 4: herbicidal effect by soil treatment (symbol K); details: application herbicide amount 320 g/ha
Outline: as §1

Avena fatua = test: Test Example 5: herbicidal effect by foliage application, plastic box (symbol I); details: 320 g/ha, 3 weeks after application
Outline: as §3

Stellaria media [4] = test: Test Example 4: herbicidal effect by soil treatment (symbol P); details: application herbicide amount 320 g/ha
Outline: as §1

rice plant = test: Test Example 5: effect on crop by foliage application, plastic box (symbol b); details: 320 g/ha, 3 weeks after application
Outline: as §2

Veronica persica = test: Test Example 4: herbicidal effect by soil treatment (symbol R); details: application herbicide amount 320 g/ha
Outline: as §1

Abutilon theophrasti [5] = test: Test Example 5: herbicidal effect by foliage application, plastic box (symbol M); details: 320 g/ha, 3 weeks after application
Outline: as §3

Stellaria media [6] = test: Test Example 5: herbicidal effect by foliage application, plastic box (symbol P); details: 320 g/ha, 3 weeks after application
Outline: as §3

[7] = tested on: Echinochloa crus-galli var. crus-galli; test: Test Example 3: herbicidal effect by foliage application, Wagner pot (symbol H); details: application herbicide amount 320 g/ha
Outline: as §4

Setaria viridis [8] = test: Test Example 5: herbicidal effect by foliage application, plastic box (symbol G); details: 320 g/ha, 3 weeks after application
Outline: as §3

Apera spica-venti [9] = test: Test Example 5: herbicidal effect by foliage application, plastic box (symbol L); details: 320 g/ha, 3 weeks after application
Outline: as §3

Abutilon theophrasti [10] = test: Test Example 4: herbicidal effect by soil treatment (symbol M); details: application herbicide amount 320 g/ha
Outline: as §1

[11] = tested on: directly sowed rice plant; test: Test Example 3: effect on crop by foliage application, Wagner pot (symbol b); details: application herbicide amount 320 g/ha
Outline: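 Greenhouse culture at 25–30 °C of seeded rice, Cyperus difformis, Leptochloa chinensis and Echinochloa crus-galli var. crus-galli, in alluvial soil held under 0.1–0.5 cm of water in a Wagner pot.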

| Compound | F: Digitaria ciliaris, herbicidal effect grade (Digitaria ciliaris) | g: rapeseed, effect on crop grade (rapeseed) | H: Echinochloa crus-galli var. crus-galli, herbicidal effect grade [1] | herbicidal effect on D (Leptochloa chinensis), grade 0-5 (Leptochloa chinensis) | G: Setaria viridis, herbicidal effect grade (Setaria viridis [2]) | f: beet, effect on crop grade (beet) | Effect grade on crop, a: transplanted rice plant (transplanted rice plant) | N: Amaranthus retroflexus, herbicidal effect grade (Amaranthus retroflexus) | L: Apera spica-venti, herbicidal effect grade (Apera spica-venti [3]) | K: Lolium multiflorum Lam., herbicidal effect grade (Lolium multiflorum Lam.) | I: Avena fatua, herbicidal effect grade (Avena fatua) | P: Stellaria media, herbicidal effect grade (Stellaria media [4]) | b: directly sowed rice plant, effect on crop grade (rice plant) | R: Veronica persica, herbicidal effect grade (Veronica persica) | M: Abutilon theophrasti, herbicidal effect grade (Abutilon theophrasti [5]) | P: Stellaria media, herbicidal effect grade (Stellaria media [6]) | herbicidal effect on H (Echinochloa crus-galli var. crus-galli), grade 0-5 [7] | G: Setaria viridis, herbicidal effect grade (Setaria viridis [8]) | L: Apera spica-venti, herbicidal effect grade (Apera spica-venti [9]) | effect on crop b (directly sowed rice plant), grade 0-5 [11] | also measured |
| --- | --- | --- | --- | --- | --- | --- | --- | --- | --- | --- | --- | --- | --- | --- | --- | --- | --- | --- | --- | --- | --- |
| CON=C(C)CC1CC(O)=C(c2c(C)cc(OCc3ccncc3)cc2C)C1=O (mixture of isomers) [6-053] | 4 (Herbicidal ratio of 70% or higher and lower than 90%) | 3 (Herbicidal ratio of 40% or higher and lower than 70%) | 5 (Herbicidal ratio of 90% or more (almost completely withered)) | 5 (Herbicidal ratio of 90% or more (almost completely withered)) | 3 (Herbicidal ratio of 40% or higher and lower than 70%) | 0 (Herbicidal ratio of 5% or lower (almost no effect)) | 3 (Herbicidal ratio of 40% or higher and lower than 70%) | 0 (Herbicidal ratio of 5% or lower (almost no effect)) | 0 (Herbicidal ratio of 5% or lower (almost no effect)) | 0 (Herbicidal ratio of 5% or lower (almost no effect)) | 3 (Herbicidal ratio of 40% or higher and lower than 70%) | 0 (Herbicidal ratio of 5% or lower (almost no effect)) | 3 (Herbicidal ratio of 40% or higher and lower than 70%) | 0 (Herbicidal ratio of 5% or lower (almost no effect)) | 0 (Herbicidal ratio of 5% or lower (almost no effect)) | 0 (Herbicidal ratio of 5% or lower (almost no effect)) | 5 (Herbicidal ratio of 90% or more (almost completely withered)) | 5 (Herbicidal ratio of 90% or more (almost completely withered)) | 4 (Herbicidal ratio of 70% or higher and lower than 90%) | 5 (Herbicidal ratio of 90% or more (almost completely withered)) | M: Abutilon theophrasti, herbicidal effect grade (Abutilon theophrasti [10]): 0 (Herbicidal ratio of 5% or lower (almost no effect)) |
| CON=C(C)CC1CC(OC(=O)COc2ccccc2)=C(c2c(C)cc(-c3ccc(Cl)cc3)cc2C)C1=O (mixture of isomers) [6-061] | 5 (Herbicidal ratio of 90% or more (almost completely withered)) |  |  | 5 (Herbicidal ratio of 90% or more (almost completely withered)) | 5 (Herbicidal ratio of 90% or more (almost completely withered)) |  | 5 (Herbicidal ratio of 90% or more (almost completely withered)) | 3 (Herbicidal ratio of 40% or higher and lower than 70%) | 5 (Herbicidal ratio of 90% or more (almost completely withered)) | 5 (Herbicidal ratio of 90% or more (almost completely withered)) |  | 3 (Herbicidal ratio of 40% or higher and lower than 70%) |  | 4 (Herbicidal ratio of 70% or higher and lower than 90%) |  |  | 5 (Herbicidal ratio of 90% or more (almost completely withered)) |  |  | 5 (Herbicidal ratio of 90% or more (almost completely withered)) | g: rapeseed, effect on crop (criteria of Test Example 1) (rapeseed): 4 (Herbicidal ratio of 70% or higher and lower than 90%); H: Echinochloa crus-galli var. crus-galli, herbicidal effect (criteria of Test Example 1) [1]: 5 (Herbicidal ratio of 90% or more (almost completely withered)); f: beet, effect on crop (criteria of Test Example 1) (beet): 3 (Herbicidal ratio of 40% or higher and lower than 70%); I: Avena fatua, herbicidal effect (criteria of Test Example 1) (Avena fatua): 5 (Herbicidal ratio of 90% or more (almost completely withered)); b: directly sowed rice plant, effect on crop (criteria of Test Example 1) (rice plant): 5 (Herbicidal ratio of 90% or more (almost completely withered)); M: Abutilon theophrasti, herbicidal effect (criteria of Test Example 1) (Abutilon theophrasti [5]): 4 (Herbicidal ratio of 70% or higher and lower than 90%); P: Stellaria media, herbicidal effect (criteria of Test Example 1) (Stellaria media [6]): 3 (Herbicidal ratio of 40% or higher and lower than 70%); G: Setaria viridis, herbicidal effect (criteria of Test Example 1) (Setaria viridis [8]): 5 (Herbicidal ratio of 90% or more (almost completely withered)); L: Apera spica-venti, herbicidal effect (criteria of Test Example 1) (Apera spica-venti [9]): 5 (Herbicidal ratio of 90% or more (almost completely withered)); M: Abutilon theophrasti, herbicidal effect grade (Abutilon theophrasti [10]): 1 (Herbicidal ratio of 5% or higher and lower than 20%) |
| CC(CC1CC(O)=C(c2c(C)cc(C)cc2C)C1=O)=NOCc1ccccn1 (stereo not drawn) [1-022] |  | 4 (Herbicidal ratio of 70% or higher and lower than 90%) | 5 (Herbicidal ratio of 90% or more (almost completely withered)) | 5 (Herbicidal ratio of 90% or more (almost completely withered)) |  | 0 (Herbicidal ratio of 5% or lower (almost no effect)) | 5 (Herbicidal ratio of 90% or more (almost completely withered)) |  |  |  | 5 (Herbicidal ratio of 90% or more (almost completely withered)) |  | 5 (Herbicidal ratio of 90% or more (almost completely withered)) |  | 1 (Herbicidal ratio of 5% or higher and lower than 20%) | 3 (Herbicidal ratio of 40% or higher and lower than 70%) | 5 (Herbicidal ratio of 90% or more (almost completely withered)) | 5 (Herbicidal ratio of 90% or more (almost completely withered)) | 5 (Herbicidal ratio of 90% or more (almost completely withered)) | 5 (Herbicidal ratio of 90% or more (almost completely withered)) | F (Digitaria ciliaris) herbicidal effect grade (Digitaria ciliaris): 5 (Herbicidal ratio of 90% or more (almost completely withered)); G (Setaria viridis) herbicidal effect grade (Setaria viridis [2]): 3 (Herbicidal ratio of 40% or higher and lower than 70%); N (Amaranthus retroflexus) herbicidal effect grade (Amaranthus retroflexus): 0 (Herbicidal ratio of 5% or lower (almost no effect)); L (Apera spica-venti) herbicidal effect grade (Apera spica-venti [3]): 5 (Herbicidal ratio of 90% or more (almost completely withered)); K (Lolium multiflorum Lam.) herbicidal effect grade (Lolium multiflorum Lam.): 5 (Herbicidal ratio of 90% or more (almost completely withered)); M (Abutilon theophrasti) herbicidal effect grade (Abutilon theophrasti [10]): 0 (Herbicidal ratio of 5% or lower (almost no effect)) |
| CON=C(C)C(=O)C1CC(O)=C(c2c(C)cc(C)cc2C)C1=O (stereo not drawn) [8-002] |  | 1 (Herbicidal ratio of 5% or higher and lower than 20%) | 3 (Herbicidal ratio of 40% or higher and lower than 70%) |  |  | 0 (Herbicidal ratio of 5% or lower (almost no effect)) | 0 (Herbicidal ratio of 5% or lower (almost no effect)) |  |  |  | 3 (Herbicidal ratio of 40% or higher and lower than 70%) |  | 4 (Herbicidal ratio of 70% or higher and lower than 90%) |  | 0 (Herbicidal ratio of 5% or lower (almost no effect)) | 0 (Herbicidal ratio of 5% or lower (almost no effect)) |  | 0 (Herbicidal ratio of 5% or lower (almost no effect)) | 3 (Herbicidal ratio of 40% or higher and lower than 70%) |  | Herbicidal effect grade, F: Digitaria ciliaris (Digitaria ciliaris): 3 (Herbicidal ratio of 40% or higher and lower than 70%); D (Leptochloa chinensis) herbicidal effect grade (Leptochloa chinensis; Table 24): 0 (Herbicidal ratio of 5% or lower (almost no effect)); Herbicidal effect grade, G: Setaria viridis (Setaria viridis [2]): 0 (Herbicidal ratio of 5% or lower (almost no effect)); Herbicidal effect grade, N: Amaranthus retroflexus (Amaranthus retroflexus): 0 (Herbicidal ratio of 5% or lower (almost no effect)); Herbicidal effect grade, L: Apera spica-venti (Apera spica-venti [3]): 0 (Herbicidal ratio of 5% or lower (almost no effect)); Herbicidal effect grade, K: Lolium multiflorum Lam. (Lolium multiflorum Lam.): 0 (Herbicidal ratio of 5% or lower (almost no effect)); Herbicidal effect grade, P: Stellaria media (Stellaria media [4]): 0 (Herbicidal ratio of 5% or lower (almost no effect)); H (Echinochloa crus-galli var. crus-galli) herbicidal effect grade ([7]; Table 24): 0 (Herbicidal ratio of 5% or lower (almost no effect)); Herbicidal effect grade, M: Abutilon theophrasti (Abutilon theophrasti [10]): 0 (Herbicidal ratio of 5% or lower (almost no effect)); b (directly sowed rice plant) effect on crop grade ([11]; Table 24): 0 (Herbicidal ratio of 5% or lower (almost no effect)) |
